Data as given in patent publication EP4247399B1, “COMPOSITION COMPRISING NATURAL EXTRACTS AND USES THEREOF” (Esserre Pharma Srl, priority 2020, dated 2022).

Biological target: T1, HMG-CoA reductase (Homo sapiens, UniProt P04035)
T1 construct: purchased Sigma-Aldrich CS1090
T1 sequence (P04035 426-888 limits assumed): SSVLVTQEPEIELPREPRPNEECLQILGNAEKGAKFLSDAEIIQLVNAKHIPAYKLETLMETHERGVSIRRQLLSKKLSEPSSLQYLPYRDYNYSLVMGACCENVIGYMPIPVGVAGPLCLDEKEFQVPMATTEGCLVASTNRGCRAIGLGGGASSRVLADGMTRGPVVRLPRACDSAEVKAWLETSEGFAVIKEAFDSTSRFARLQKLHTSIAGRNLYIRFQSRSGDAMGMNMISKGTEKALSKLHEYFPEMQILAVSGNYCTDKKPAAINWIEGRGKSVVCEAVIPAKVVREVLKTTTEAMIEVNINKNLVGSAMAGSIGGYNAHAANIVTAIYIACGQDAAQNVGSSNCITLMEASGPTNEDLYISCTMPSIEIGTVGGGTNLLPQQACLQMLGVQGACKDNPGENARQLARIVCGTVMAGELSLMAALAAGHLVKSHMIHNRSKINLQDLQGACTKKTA
Assay: HMG-CoA reductase inhibition test (HMG-CoA Reductase Assay Kit, decrease in absorbance at 340 nm)
Type: biochemical
Conditions: positive control
Description: The purpose of the test is to evaluate the hypocholesterolemic activity of the test samples by determining the inhibition of the enzyme 3-hydroxy-3-methylglutaryl-CoA reductase (HMG-CoA reductase).
The test for the HMG-CoA reductase enzyme inhibitory capacity was performed using the special kit (HMG-CoA Reductase Assay Kit, Catalogue Number CS1090, Sigma-Aldrich) and related experimental protocol.
The experiments were carried out in triplicate.
5 mL of buffer were added to 50 mg of the test sample and the solution obtained was then suitably filtered and used for the test.
A 100 µM Pravastatin solution (0.042 mg/mL, Sigma Aldrich) was used as a positive control.
The samples thus prepared were stirred for 10 seconds. Absorbance was then measured at 340 nm for 10 minutes while maintaining the samples at 37°C.
The ability to inhibit enzyme activity was then expressed as percent inhibition and calculated according to the following Equation (1): %Hinibition = ((ΔAControl −ΔAsample)/(ΔAControl)) × 100% [formula] where the value of ΔA is given by the difference between the absorbance recorded at the start time and that recorded after 10 minutes for the control and for the sample respectively. […]

CC[C@H](C)C(=O)O[C@H]1C[C@H](O)C=C2C=C[C@H](C)[C@H](CC[C@@H](O)C[C@@H](O)CC(=O)O)[C@H]21 [Pravastatin]
inhibition at 10 µg/mL (Pravastatin 0.01 mg/mL (10 µg/mL)): 99.8%
inhibition at 100 µM (Pravastatin 0.042 mg/ml (100 µM)): 99.6 ± 1.1%
